Laboratory results taken from patent publication US10251394B2, “Molecules having pesticidal utility, and intermediates, compositions, and processes, related thereto” (Dow AgroSciences LLC, priority 2016, dated 2019).

Legend:
[1] = system: Beet Armyworm (Spodoptera exigua); experiment: Bioassay on Beet Armyworm (BAW), 128-well diet tray assay; type: in vivo; settings: for pest or weed control at 50 µg/cm2: Beet Armyworm, Table ABC, read-out: BAW rating; for mortality at 0.05 µg/cm2 / mortality at 0.5 µg/cm2 / mortality at 5 µg/cm2: 168 h, second instar larvae, five to seven days, read-out: BAW Percent control (or mortality); for mortality at 0.05 µg/cm2: 0.05 μg/cm^2 on artificial diet; for mortality at 0.5 µg/cm2: 0.5 μg/cm^2 on artificial diet; for mortality at 5 µg/cm2: 5 μg/cm^2 on artificial diet
Procedure: (§1) Example A: Bioassays on Beet Armyworm (Spodoptera Exigua, LAPHEG) (“BAW”), Corn Earworm (Helicoverpa Zea, HELIZE) (“CEW”), and Cabbage Looper (Trichoplusia Ni, TRIPNI) (“CL”)
(§2) Certain molecules disclosed in this document were tested against BAW, CEW, and CL using procedures described in the following examples. In the reporting of the results, the “BAW, CEW, & CL Rating Table” was used (See Table Section).
Bioassays on BAW were conducted using a 128-well diet tray assay. One to five second instar BAW larvae were placed in each well (3 mL) of the diet tray that had been previously filled with 1 mL of artificial diet to which 50 μg/cm^2 of the test molecule (dissolved in 50 μL of 90:10 acetone-water mixture) had been applied (to each of eight wells) and then allowed to dry. Trays were covered with a clear self-adhesive cover and held at 25° C., 14:10 light-dark for five to seven days. Percent mortality was recorded for the larvae in each well; activity in the eight wells was then averaged. The results are indicated in the table entitled “Table ABC: Biological Results” (See Table Section).
(§3) Bioassays on BAW and CL were conducted according to the procedures outlined in Example A: Bioassays on Beet Armyworm (“BAW”) and Cabbage Looper (“CL”) using the indicated concentrations.

[2] = system: Cabbage Looper (Trichoplusia ni); experiment: Bioassay on Cabbage Looper (CL), 128-well diet tray assay; type: in vivo; settings: for pest or weed control at 50 µg/cm2: Cabbage Looper, Table ABC, read-out: CL rating; for mortality at 0.05 µg/cm2 / mortality at 0.5 µg/cm2 / mortality at 5 µg/cm2: 168 h, second instar larvae, five to seven days, read-out: CL Percent control (or mortality); for mortality at 0.05 µg/cm2: 0.05 μg/cm^2 on artificial diet; for mortality at 0.5 µg/cm2: 0.5 μg/cm^2 on artificial diet; for mortality at 5 µg/cm2: 5 μg/cm^2 on artificial diet
Procedure: as §1, §2
Bioassays on CL were conducted using a 128-well diet tray assay. One to five second instar CL larvae were placed in each well (3 mL) of the diet tray that had been previously filled with 1 mL of artificial diet to which 50 μg/cm^2 of the test molecule (dissolved in 50 μL of 90:10 acetone-water mixture) had been applied (to each of eight wells) and then allowed to dry. Trays were covered with a clear self-adhesive cover and held at 25° C., 14:10 light-dark for five to seven days. Percent mortality was recorded for the larvae in each well; activity in the eight wells was then averaged. The results are indicated in the table entitled “Table ABC: Biological Results” (See Table Section).
as §3

| Compound | pest or weed control at 50 µg/cm2 [1] | pest or weed control at 50 µg/cm2 [2] | mortality at 0.05 µg/cm2 [1] | mortality at 0.5 µg/cm2 [1] | mortality at 5 µg/cm2 [1] | mortality at 0.05 µg/cm2 [2] | mortality at 0.5 µg/cm2 [2] | mortality at 5 µg/cm2 [2] |
| --- | --- | --- | --- | --- | --- | --- | --- | --- |
| Cc1cc(/C(F)=C/C(c2cc(Cl)c(Cl)c(Cl)c2)C(F)(F)F)ccc1C(=O)NC1(C(=O)NCCC2CC2)CC1 (stereo not shown) [F10, (Z)—N-(1-((2-Cyclopropylethyl)carbamoyl)cyclopropyl)-2-methyl-4-(1,4,4,4-tetrafluoro-3-(3,4,5-trichlorophenyl)but-1-en-1-yl)benzamide] | 50 to 100% | 50 to 100% |  |  |  |  |  |  |
| C=CCNC(=O)[C@@H](C)NC(=O)c1ccc(/C(F)=C/C(c2cc(Cl)c(Cl)c(Cl)c2)C(F)(F)F)cc1C(F)(F)F (stereo partly drawn) [F11, N—((R)-1-(Allylamino)-1-oxopropan-2-yl)-4-((Z)-1,4,4,4-tetrafluoro-3-(3,4,5-trichlorophenyl)but-1-en-1-yl)-2-(trifluoromethyl)benzamide] | 50 to 100% | 50 to 100% |  |  |  |  |  |  |
| C[C@@H](NC(=O)c1ccc(/C(F)=C/C(c2cc(Cl)c(Cl)c(Cl)c2)C(F)(F)F)cc1C(F)(F)F)C(=O)NCCC1CC1 (stereo partly drawn) [F12, N—((R)-1-((2-Cyclopropylethyl)amino)-1-oxopropan-2-yl)-4-((Z)-1,4,4,4-tetrafluoro-3-(3,4,5-trichlorophenyl)but-1-en-1-yl)-2-(trifluoromethyl)benzamide] | 50 to 100% | 50 to 100% |  |  |  |  |  |  |
| C[C@@H](NC(=O)c1ccc(/C(F)=C/C(c2cc(Cl)c(Cl)c(Cl)c2)C(F)(F)F)cc1C(F)(F)F)C(=O)N(C)CC(F)(F)F (stereo partly drawn) [F13, N—((R)-1-(Methyl(2,2,2-trifluoroethyl)amino)-1-oxopropan-2-yl)-4-((Z)-1,4,4,4-tetrafluoro-3-(3,4,5-trichlorophenyl)but-1-en-1-yl)-2-(trifluoromethyl)benzamide] | 50 to 100% | 50 to 100% |  |  |  |  |  |  |
| C=CCNC(=O)[C@@H](C)NC(=O)c1ccc(/C(F)=C/C(c2cc(Cl)c(Cl)c(Cl)c2)C(F)(F)F)cc1C (stereo partly drawn) [F14, N—((R)-1-(Allylamino)-1-oxopropan-2-yl)-2-methyl-4-((Z)-1,4,4,4-tetrafluoro-3-(3,4,5-trichlorophenyl)but-1-en-1-yl)benzamide] | 50 to 100% | 50 to 100% |  |  |  |  |  |  |
| Cc1cc(/C(F)=C/C(c2cc(Cl)c(Cl)c(Cl)c2)C(F)(F)F)ccc1C(=O)N[C@H](C)C(=O)NCCC1CC1 (stereo partly drawn) [F15, N—((R)-1-((2-Cyclopropylethyl)amino)-1-oxopropan-2-yl)-2-methyl-4-((Z)-1,4,4,4-tetrafluoro-3-(3,4,5-trichlorophenyl)but-1-en-1-yl)benzamide] | 50 to 100% | 50 to 100% |  |  |  |  |  |  |
| CCCCNC(=O)[C@@H](C)NC(=O)c1ccc(/C(F)=C/C(c2cc(Cl)c(Cl)c(Cl)c2)C(F)(F)F)cc1C(F)(F)F (stereo partly drawn) [F16, N—((R)-1-(Butylamino)-1-oxopropan-2-yl)-4-((Z)-1,4,4,4-tetrafluoro-3-(3,4,5-trichlorophenyl)but-1-en-1-yl)-2-(trifluoromethyl)benzamide] | 50 to 100% | 50 to 100% |  |  |  |  |  |  |
| C[C@@H](NC(=O)c1ccc(/C(F)=C\C(c2cc(Cl)c(Cl)c(Cl)c2)C(F)(F)F)cc1C(F)(F)F)C(=O)NCC(F)(F)F (stereo partly drawn) [F17, N—((R)-1-oxo-1-((2,2,2-trifluoroethyl)amino)propan-2-yl)-4-((E)-1,4,4,4-tetrafluoro-3-(3,4,5-trichlorophenyl)but-1-en-1-yl)-2-(trifluoromethyl)benzamide] | 50 to 100% | 50 to 100% |  |  |  |  |  |  |
| C[C@@H](NC(=O)c1ccc(/C(F)=C/C(c2cc(Cl)c(Cl)c(Cl)c2)C(F)(F)F)cc1Br)C(=O)NCC(F)(F)F (stereo partly drawn) [F18, 2-Bromo-N—((R)-1-oxo-1-((2,2,2-trifluoroethyl)amino)propan-2-yl)-4-((Z)-1,4,4,4-tetrafluoro-3-(3,4,5-trichlorophenyl)but-1-en-1-yl)benzamide] | 50 to 100% | 50 to 100% | 100% | 100% | 100% | 100% | 100% | 100% |
| O=C(CNC(=O)c1ccc(/C(F)=C/C(c2cc(Cl)c(Cl)c(Cl)c2)C(F)(F)F)cc1Br)NCC(F)(F)F (stereo not shown) [F19, (Z)-2-Bromo-N-(2-oxo-2-((2,2,2-trifluoroethyl)amino)ethyl)-4-(1,4,4,4-tetrafluoro-3-(3,4,5-trichlorophenyl)but-1-en-1-yl)benzamide] | 50 to 100% | 50 to 100% | 100% | 100% | 100% | 100% | 100% | 100% |
| CCN(CC(F)(F)F)C(=O)[C@@H](C)NC(=O)c1ccc(/C(F)=C/C(c2cc(Cl)c(Cl)c(Cl)c2)C(F)(F)F)cc1C(F)(F)F (stereo partly drawn) [F20, N—((R)-1-(Ethyl(2,2,2-trifluoroethyl)amino)-1-oxopropan-2-yl)-4-((Z)-1,4,4,4-tetrafluoro-3-(3,4,5-trichlorophenyl)but-1-en-1-yl)-2-(trifluoromethyl)benzamide] | 50 to 100% | 50 to 100% |  |  |  |  |  |  |
| O=C(NC1(C(=O)NCC(F)(F)F)CC1)c1ccc(/C(F)=C/C(c2cc(Cl)c(Cl)c(Cl)c2)C(F)(F)F)cc1Br (stereo not shown) [F21, (Z)-2-Bromo-4-(1,4,4,4-tetrafluoro-3-(3,4,5-trichlorophenyl)but-1-en-1-yl)-N-(1-((2,2,2-trifluoroethyl)carbamoyl)cyclopropyl)benzamide] | 50 to 100% | 50 to 100% |  |  |  |  |  |  |
| O=C(CNC(=O)c1ccc(/C(F)=C/C(c2cc(Cl)c(Cl)c(Cl)c2)C(F)(F)F)cc1Cl)NCC(F)(F)F (stereo not shown) [F22, (Z)-2-Chloro-N-(2-oxo-2-((2,2,2-trifluoroethyl)amino)ethyl)-4-(1,4,4,4-tetrafluoro-3-(3,4,5-trichlorophenyl)but-1-en-1-yl)benzamide] | 50 to 100% | 50 to 100% | 100% | 100% | 100% | 100% | 100% | 100% |
| C[C@@H](NC(=O)c1ccc(/C(F)=C/C(c2cc(Cl)c(Cl)c(Cl)c2)C(F)(F)F)cc1Cl)C(=O)NCC(F)(F)F (stereo partly drawn) [F23, 2-Chloro-N—((R)-1-oxo-1-((2,2,2-trifluoroethyl)amino)propan-2-yl)-4-((Z)-1,4,4,4-tetrafluoro-3-(3,4,5-trichlorophenyl)but-1-en-1-yl)benzamide] | 50 to 100% | 50 to 100% | 81% | 100% | 100% | 100% | 100% | 100% |
| CON(CC(F)(F)F)C(=O)[C@@H](C)NC(=O)c1ccc(/C(F)=C/C(c2cc(Cl)c(Cl)c(Cl)c2)C(F)(F)F)cc1C(F)(F)F (stereo partly drawn) [F24, N—((R)-1-(Methoxy(2,2,2-trifluoroethyl)amino)-1-oxopropan-2-yl)-4-((Z)-1,4,4,4-tetrafluoro-3-(3,4,5-trichlorophenyl)but-1-en-1-yl)-2-(trifluoromethyl)benzamide] | 50 to 100% | 50 to 100% |  |  |  |  |  |  |
| CCN(CC(F)(F)F)C(=O)[C@@H](C)NC(=O)c1ccc(/C(F)=C/C(c2cc(Cl)c(Cl)c(Cl)c2)C(F)(F)F)cc1Br (stereo partly drawn) [F25, 2-Bromo-N—((R)-1-(ethyl(2,2,2-trifluoroethyl)amino)-1-oxopropan-2-yl)-4-((Z)-1,4,4,4-tetrafluoro-3-(3,4,5-trichlorophenyl)but-1-en-1-yl)benzamide] | 50 to 100% | 50 to 100% |  |  |  |  |  |  |
| Cc1cc(/C(F)=C/C(c2cc(Cl)c(Cl)c(Cl)c2)C(C)(F)F)ccc1C(=O)N[C@H](C)C(=O)NCC(F)(F)F (stereo partly drawn) [F26, 2-Methyl-N—((R)-1-oxo-1-((2,2,2-trifluoroethyl)amino)propan-2-yl)-4-((Z)-1,4,4-trifluoro-3-(3,4,5-trichlorophenyl)pent-1-en-1-yl)benzamide] | 50 to 100% | 50 to 100% |  |  |  |  |  |  |
